Data taken from patent publication US3985779A, “M-phenoxyphenyl propionic acid derivatives and preparation thereof” (Eisai Co., Ltd., priority 1973, dated 1976).
Entries after “also recorded” stand apart in the source; their conditions may differ. Like-named read-outs stand apart in the source and are kept apart here.

Assays:
writhing syndrome = experiment: Analgesic activity: antagonism to acetic acid writhing syndrome in mice (Experiment J); type: in vivo, mice (dd strain male)
Experimental: Analgesic activity of the compound of the present invention in comparison with the known compounds.
Analgesic activity of the compound was tested as the measure of antagonism to writhing syndrome appeared when 0.1 ml/10g of 0.7% acetic acid was intraperitoneally injected to the dd strain male mice having 17 - 20 grs. body weight which had been abstinence from food for 18 hours.
The compounds under test were orally administered in a form of suspension in a 5% aqueous solution of gum arabic. After one hour from the administration, the onset times required for the writhing syndrome were scored.
In another Experiment in the combined use of the compounds under test and Codeine phosphate, 10 - 20 mg/kg of Codeine phosphate were orally administered immediatly after the oral administration of the compounds under test.

[1] = test system: Carrageenin-induced edema; experiment: Inhibitory activity on Carrageenin-induced Edema in rats (Experiment A); type: in vivo, rats (male Wistar); settings: 3 hours after Carrageenin
Experimental: Inhibitory activity on Carrageenin-induced Edema in rats
Carrageenin was used as the agent for inducing edema and 5 male rats of Wistar strain having body weight of about 150 grs. after fasting for 16-17 hours were used as test animals. The inhibitory activity of the test compounds were determined with the paw edema method in accordance with Winter C. A. et al; Proc. Soc. Exp. Biol. Med. 111, 544 (1962).
The compounds were suspended in an aqueous solution of gum arabic and the same were orally administered to the rats at 1 hour before the injection of Carrageenin.
The observation was effected by measuring, after 3 hours the administration of the Carrageenin, the enlarged volumes of hind paw of the rats.

Dextran-induced edema = experiment: Inhibitory activity on dextran-induced edema in rats (Experiment C); type: in vivo
Experimental: Inhibitory activity on dextran-induced edema in rats Experiment was carried out in the manner same as those of the preceding Experiments in which dextran was employed as irritant substance.

Kaolin-induced edema = experiment: Inhibitory activity on Kaolin-induced Edema in Rats (Experiment B); type: in vivo
ARRS-induced edema = experiment: Inhibitory activity on anti-rat-rabbit serum (ARRS)-induced edema in rats (Experiment D); type: in vivo
Experimental: Inhibitory activity on anti-rat-rabbit serum (ARRS)-induced edema in rats Similar Experiments was carried out by using ARRS as irritant substance.

[2] = test system: granuloma induced by Formalin Filter paper Pellet; settings: for Adrenal / Granuloma-Wet-Weight ± S.E. / Thymus: 6 days
[3] = test system: edema induced with the various inflammatory agents; experiment: Inhibitory activity on edema induced with the various inflammatory agents (Experiments A-G, summary); type: in vivo, rats; settings: compared with Fenoprofen and Ibuprofen
Description: From the abovementioned Experiments A - G, it has been found the followings: […]

[4] = test system: Adjuvant-induced arthritis; experiment: Inhibitory activity on Adjuvant arthritis in rats (Experiment E); type: in vivo
Description: The inflammatory score and the volumes of the right and left paws of the rats were observed.

stomachs of the rats = type: in vivo; settings: 50 mg/kg oral; score 0 (nothing unusual) to 10 (considerable irritability with bleeding)
Description: Observation of gastric irritability
Gastric irritability due to oral administration of the compounds as edema inhibitory agent was studied by macroscopical observation of the dissected stomachs of the rats which had been employed for determination of the edema inhibitions mentioned in the preceding paragraphs. The degrees of the irritability observed were scored in the 0 to 10 ratings depending upon the extent of errosions and bleedings of the stomachs, wherein the rating of 0(zero) means "nothing unusual", the rating of 10 means a state of considerable gastric irritability with bleeding and the remainders mean the intermediate degree of gastric irritability.

in vivo = settings: mouse, po
Experimental: Comparison of toxicity of the phenyl propionic acid derivatives of the present invention and that of the other known anti-inflammatory agents was carried out in mice.

[5] = daily oral 40 mg/kg for 9 days, final

## CC(C(=O)O)c1cccc(Oc2ccccc2Cl)c1 (stereo not drawn) [Compound (5), 2-[m-(o-chlorophenoxy)phenyl]propionic acid]
Writhing syndrome; 10 mg/kg p.o. combined with Codeine Phosphate 10 mg/kg
  Onset time of writhing syndrome, mean ± S.E.: 6.7 ± 1.3 min
Writhing syndrome; 10 mg/kg p.o. combined with Codeine Phosphate 20 mg/kg
  Onset time of writhing syndrome, mean ± S.E.: 6.9 ± 0.7 min
Writhing syndrome; 20 mg/kg p.o. combined with Codeine Phosphate 10 mg/kg
  Onset time of writhing syndrome, mean ± S.E.: 6.9 ± 1.3 min
Writhing syndrome; 20 mg/kg p.o. combined with Codeine Phosphate 20 mg/kg
  Onset time of writhing syndrome, mean ± S.E.: 8.6 ± 0.6 min
Writhing syndrome; 40 mg/kg p.o. combined with Codeine Phosphate 10 mg/kg
  Onset time of writhing syndrome, mean ± S.E.: 7.1 ± 1.2 min
Writhing syndrome; 40 mg/kg p.o. combined with Codeine Phosphate 20 mg/kg
  Onset time of writhing syndrome, mean ± S.E.: 13.7 ± 1.2 min
Writhing syndrome; 80 mg/kg p.o. combined with Codeine Phosphate 10 mg/kg
  Onset time of writhing syndrome, mean ± S.E.: 10.5 ± 1.2 min
Writhing syndrome; 80 mg/kg p.o. combined with Codeine Phosphate 20 mg/kg
  Onset time of writhing syndrome, mean ± S.E.: 14.2 ± 0.8 min
Writhing syndrome; 10 - 80 mg/kg p.o. with Codeine phosphate 10 and 20 mg/kg p.o.
  analgesic activity in combination with Codeine (in words): almost equivalent to those of Fenoprofen and Ibuprofen, and far stronger than that of Aspirin; also recorded: comparable to that of Fenoprofen and slightly stronger than that presented by Ibuprofen
Writhing syndrome; Mus musculus, 1 h, single oral administration, read-out: dose with significant antagonism / retardation of writhing syndrome
  minimal effective dose: > 20 mg/kg
Writhing syndrome; mouse, in vivo
  analgesic activity (in words): high analgesic activity
Writhing syndrome; test compound alone, 10 mg/kg p.o.
  Onset time of writhing syndrome, mean ± S.E.: 5.2 ± 1.2 min
Writhing syndrome; test compound alone, 20 mg/kg p.o.
  Onset time of writhing syndrome, mean ± S.E.: 6.6 ± 1.6 min
Writhing syndrome; test compound alone, 40 mg/kg p.o.
  Onset time of writhing syndrome, mean ± S.E.: 5.8 ± 0.4 min
Writhing syndrome; test compound alone, 80 mg/kg p.o.
  Onset time of writhing syndrome, mean ± S.E.: 7.8 ± 1.7 min
[1]; oral 8.0 mg/kg
  % of Inhibition: 43%
  Edema density ± S.E.: .305 ± .044
[1]; oral 40.0 mg/kg
  % of Inhibition: 53%
  Edema density ± S.E.: .250 ± .049
Dextran-induced edema; after 2 hrs, oral 8 mg/kg
  % of Inhibition: 1%
  Edema D. ± S.E.: .830 ± .052
Dextran-induced edema; after 2 hrs, oral 40 mg/kg
  % of Inhibition: 11%
  Edema D. ± S.E.: .742 ± .037
Dextran-induced edema; after 3 hrs, oral 8 mg/kg
  % of Inhibition: 1%
  Edema D. ± S.E.: .746 ± .026
Dextran-induced edema; after 3 hrs, oral 40 mg/kg
  % of Inhibition: 8%
  Edema D. ± S.E.: .689 ± .035
Kaolin-induced edema; after 3 hrs, oral 8 mg/kg
  % of Inhibition: 20%
  Edema D. ± S.E.: .334 ± .069
Kaolin-induced edema; after 3 hrs, oral 40 mg/kg
  % of Inhibition: 52%
  Edema D. ± S.E.: .201 ± .021
Kaolin-induced edema; after 5 hrs, oral 8 mg/kg
  % of Inhibition: 21%
  Edema D. ± S.E.: .442 ± .045
Kaolin-induced edema; after 5 hrs, oral 40 mg/kg
  % of Inhibition: 57%
  Edema D. ± S.E.: .245 ± .017
Kaolin-induced edema; after 7 hrs, oral 8 mg/kg
  % of Inhibition: 7%
  Edema D. ± S.E.: .563 ± .060
Kaolin-induced edema; after 7 hrs, oral 40 mg/kg
  % of Inhibition: 51%
  Edema D. ± S.E.: .294 ± .035
ARRS-induced edema; after 2 hrs, oral 8 mg/kg
  Edema D. ± S.E.: .631 ± 7040
ARRS-induced edema; after 2 hrs, oral 40 mg/kg
  % of Inhibition: 10%
  Edema D. ± S.E.: .610 ± .067
ARRS-induced edema; after 3 hrs, oral 8 mg/kg
  % of Inhibition: 11%
  Edema D. ± S.E.: .637 ± .074
ARRS-induced edema; after 3 hrs, oral 40 mg/kg
  % of Inhibition: 19%
  Edema D. ± S.E.: .575 ± .074
[2]; daily oral 8 mg/kg
  Adrenal: 44.6 mg
  Granuloma-Wet-Weight ± S.E.: 68 ± 4
  Thymus: 545 mg
[2]; daily oral 40 mg/kg
  Adrenal: 43.8 mg
  Granuloma-Wet-Weight ± S.E.: 89 ± 4
  Thymus: 522 mg
[2]; oral 8 and 40 mg/kg/day for successive 6 days
  inhibitory activity on granuloma (in words): significant effect as compared with the control
[3]
  anti-inflammatory activity (in words): most effective as the anti-inflammatory agent
[4]; [5]
  Final Paw Volume, left paw: 45
  Final Paw Volume, right paw: 66
  Final Score, Mean, left paw: 1.8
  Final Score, Mean, right paw: 3.2
  Final Score, Total, left paw: 9
  Final Score, Total, right paw: 16
[4]; daily oral 40 mg/kg, initial
  Initial Paw Volume, left paw: 39
  Initial Paw Volume, right paw: 73
  Initial Score, Mean, left paw: 1.8
  Initial Score, Mean, right paw: 3.6
  Initial Score, Total, left paw: 9
  Initial Score, Total, right paw: 18
[4]; score and paw volume, 40 mg/kg daily for 9 days
  inhibitory activity on Adjuvant arthritis (in words): significant inhibitory activity in score and paw volume
Stomachs of the rats
  Degree of gastric irritability: 2
In vivo
  LD50: 1120 mg/kg
